Experimental findings from article PMC8042910, “Adiponectin-mimetic novel nonapeptide rescues aberrant neuronal metabolic-associated memory deficits in Alzheimer’s disease” (Molecular Neurodegeneration, 2021) are described below.

Residues, ends and D or L forms follow the SMILES beside them.

For one data set, the system named is p-PI3K/Akt/GSK3β (Ser 9). Nature of the data set: Downstream insulin signaling in mouse brain, immunoblot. The class given is in vivo. The note with it: AβO-treated, APP/PS1 and Adipo−/− mice, 5 μg/g, i.p., alternating days for 45 days. On the procedure: Os-pep was dissolved in double-deionized distilled water and then prepared in normal saline to obtain the final administered concentration. The AβO, APP/PS1, Adipo^−/− and WT mice were injected i.p. with Os-pep at a dosage of 5 μg/g on alternating days for 45 days. WT, Veh-injected transgenic-APP/PS1 and Adipo^−/− mice were injected with the same volume of double-deionized water and normal saline. The WT control and sham mice as well as the Veh-injected AβO, APP/PS1, Adipo^−/− and HFD mice received the same volume of double-deionized distilled water or normal saline.
The protein concentrations of the homogenates of mouse brain tissue and cell lysates in vitro were measured using a Bio-Rad protein assay kit (Bio-Rad Laboratories, Hercules, CA), and immunoblotting was performed as we previously described, using primary antibodies (detailed information described in the supplementary Table 1). Western blotting membranes have been cut prior to original western blot images and original western blot images are available at supplementary material.

Data set [1] can be described thus: Stability and half-life of Os-pep in mouse plasma. Type of data set: in vitro ADME. The note with it: 37 °C, LC-MS/MS. As to the method: The stability of Os-pep in mouse plasma was evaluated. An aqueous stock solution of Os-pep was added to each mouse plasma sample (n= 3) at a final concentration of 1 μg/mL. Tubes were placed in a Thermomixer (Eppendorf, Germany) and maintained at 37 °C with rotation at 300 rpm. These samples were incubated for up to 2 h. The amount of peptide remaining after the incubation was immediately determined by liquid chromatography-tandem mass spectrometry (LC-MS/MS). At different time intervals, an aliquot (100 μL) of ice-cold acetonitrile containing 0.1 μg/mL gabapentin (internal standard) was added to a 50 μL aliquot of the sample. Deproteinized samples were analyzed after vortex-mixing and centrifugation.

Data set [2] relates to hippocampal pyramidal neuronal cells. Nature of the data set: Golgi staining, dendritic complexity and spine density of hippocampal CA1 pyramidal neurons. Type of data set: in vivo, mouse. The note with it: Adipo−/− and AβO mice. The source says: In a separate cohort of studies, we performed Golgi staining and morphological analysis of hippocampal pyramidal neuronal cells and were investigated as accordingly our previous protocol.

Another data set has as its system WT C57BL/6 N mice. The class given is in vivo, mouse. As to conditions: i.p. bolus 10, 20, 30, 40 and 50 mg/kg, observed 1 week, n = 5/group, data not shown. On the procedure: To optimize and analyze the toxicity and effective dose of Os-pep, we performed a separate group of studies using wild-type (WT) male C57BL/6 N mice to examine the toxicity of Os-pep in vivo. The WT mice were rearranged into 5 groups (n = 5 mice/group). Os-pep was administered in bolus dosages of 10, 20, 30, 40 and 50 mg/kg in normal saline to the respective groups, and the Veh-injected mice received the same amount of normal saline as WT mice. We checked for signs of systemic toxicity, such as head tilt, tremor, abnormal physical activity and squinting, for 1 week in WT mice that had been treated with i.p. bolus doses of Os-pep (10, 20, 30, 40 and 50 mg/kg).
To optimize and analyze the toxicity and effective dose of Os-pep, we performed a separate group of studies in order to assess signs of systemic toxicity, such as head tilt, tremor, changes in physical activity and squinting, for 1 week in normal WT mice injected i.p. with bolus doses of Os-pep (10, 20, 30, 40 and 50 mg/kg) to investigate the safety profile of bolus doses of Os-pep.

A further data set deals with AdipoR1/p-AMPK signaling. Nature of the data set: AdipoR1/p-AMPK signaling in in vitro AD models (immunoblot, ELISA, AMPK assay). The class given is cell-based, human. The note with it: 10 μM, 12 h. As to the method: Human neuroblastoma SH-SY5Y cells were seeded (in 6-well culture plates for immunoblotting and in chamber slides for immunofluorescence) in DMEM (Dulbecco’s modified Eagle medium) containing 10% fetal bovine serum (FBS) and 1% antibiotics (penicillin-streptomycin) and incubated at 37 °C in humidified air containing 5% CO2. Once the cells reached 70–80% confluence, the cells were transfected using the pCAX vector containing the APPswe/ind gene using Lipofectamine 3000 (Life Technologies) according to the provider’s protocols. […]
SH-SY5Y (2×10^4/ml) cells used for ELISA and AMPK assays were cultured in 35-mm dishes in the presence of culture medium of DMEM containing FBS (10%) and antibiotics (1%) at 37°C in humidified air containing 5% CO2 to 70-75% confluences. […] Seventy-two hours after transfections, cells were treated with Os-pep (10 µM) for 12 h and cell lysates were collected and analyzed using ELISAs and immunoassays, as appropriate.
The AdipoR1 expressions were measured in the brain homogenates from APP/PS1 and Adipo-^/- mice and in lysates from APPswe/ind-overexpressed SH-SY5Y cells transfected with the AdipoR1 siRNA and treated Os-pep (10 µM) in vitro using the mouse and human AdipoR1 ELISA kits, accordingly to the provider’s instructions (MyBioSource). […]
In general terms: Immunoblotting shows a protein as a band on a membrane.

Regarding `C[C@@H](O)[C@H](NC(=O)[C@@H]1CCCN1C(=O)CNC(=O)[C@H](CS)NC(=O)[C@@H]1CCCN1C(=O)CNC(=O)[C@H](CCC(N)=O)NC(=O)[C@@H](NC(=O)[C@@H](N)CS)[C@@H](C)O)C(=O)O` [Os-pep] (H-CTQGPCGPT-OH; N-terminus and C-terminus assumed), in the data set with p-PI3K/Akt/GSK3β (Ser 9), the “p-PI3K/Akt/GSK3β (Ser 9) levels” value was “reversed the reduction”. For the same molecule, the “half-life (t1/2)” value in data set [1] (1 μg/mL, incubated up to 2 h, n = 3, first-order kinetics) is “approximately 2 h”. In addition, the remaining at 2 h, 1 μg/mL in data set [1] (300 rpm, after 2 h, n = 3, 0 min set to 100%, read-out: initial concentration remained) turned out to be 53%. In addition, the half-life (commonly the time needed for the level to fall by half in the phase considered) at 1 μg/mL in data set [1] (triplicate samples, read-out: Half-life (printed in Fig. 8c) (converted)) was 2.03 h. Besides, the total dendritic length entry in data set [2] (5 μg/g, i.p., alternating days for 45 days) is reported as “significantly increased the total dendritic length”. Besides, the “total number of spines and filopodia-like spines” value in data set [2] (hippocampal CA1) is “significantly increased the total number of spines and the number of filopodia-like spines”. In addition, the “signs of systemic toxicity (head tilt, tremor, physical activity, squinting)” value in the data set on WT C57BL/6 N mice is “no toxicity was observed”. Besides, the “AdipoR1/AMPK signaling with AdipoR1 knockdown” value with AdipoR1/p-AMPK signaling (APPswe/ind SH-SY5Y with AdipoR1 siRNA, ELISA and AMPK assay) was “did not promote the stimulation of AdipoR1/AMPK signaling”. Besides, in the data set with AdipoR1/p-AMPK signaling (AβO-treated and human APPswe/ind-overexpressing SH-SY5Y cells), the “neuronal AdipoR1/p-AMPK signaling” value is “significantly increased neuronal AdipoR1/p-AMPK signaling”.
